The results in this text go back to US5585356A, “Matrix metalloproteinase peptides: role in diagnosis and therapy” (priority 1994, dated 1996).

Where no end group is shown, it is not given here.

One experiment has as its target T1, type IV collagenase (Homo sapiens, UniProt P08253).
T1 construct: endogenous in cells; host or cells: human A2058 melanoma cells
T1 sequence (P08253 110-660): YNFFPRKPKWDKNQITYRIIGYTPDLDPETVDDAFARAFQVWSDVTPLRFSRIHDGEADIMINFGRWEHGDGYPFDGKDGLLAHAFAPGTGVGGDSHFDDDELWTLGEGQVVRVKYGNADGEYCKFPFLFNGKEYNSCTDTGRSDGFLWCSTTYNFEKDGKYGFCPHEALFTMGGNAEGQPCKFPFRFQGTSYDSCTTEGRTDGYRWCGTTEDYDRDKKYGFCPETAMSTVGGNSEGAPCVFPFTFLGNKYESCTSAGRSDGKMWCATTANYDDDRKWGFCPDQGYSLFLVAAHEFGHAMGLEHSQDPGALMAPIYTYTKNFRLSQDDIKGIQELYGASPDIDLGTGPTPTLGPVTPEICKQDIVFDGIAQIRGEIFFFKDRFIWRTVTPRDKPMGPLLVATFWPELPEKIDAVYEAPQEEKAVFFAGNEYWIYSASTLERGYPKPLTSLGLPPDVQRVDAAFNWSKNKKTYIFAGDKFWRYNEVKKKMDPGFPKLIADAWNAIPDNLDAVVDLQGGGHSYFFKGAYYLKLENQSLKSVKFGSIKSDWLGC
Nature of the experiment: soluble type IV collagenase assay (3H-type IV collagen degradation). The experiment is classed as biochemical. To be noted: peptide 0.1 mM; purified activated type IV collagenase, pepsinized type IV collagen (FIG. 11). How it is done: FIG. 11 illustrates the dose dependent inhibition of purified activated type IV collagenase cleavage of pepsinized type IV collagen by the designated synthetic peptides. Peptide TMRKPRCGNPDVAN at a concentration of 0.1 mM inhibits 80% of the enzyme activity.
The procedure for the collagenase assay of this example utilized the following preparation.
1. Place enzyme sample activator (usually 1 mM pAPMA) and test solution in 1.5 ml Eppendorf tube. Combined volume must equal 60 μl. Add 1× collagenase buffer, if necessary. If necessary, preincubate.
2. Prepare type Iv collagen substrate by diluting stock ^3 H-type IV collagen (NEN #NET-931 lot #2511-018) 1:120 with 1× collagenase buffer. Heat to 55° C. for 10 minutes and cool on ice.
3. Add 5 μl of diluted mH-type IV collagen solution to each assay tube. Vortex to mix and incubate at 28° C. for 4 hours.
4. At the end of the incubation period, add 2 μl of carrier BSA solution and 7 μl of TCATAP solution. Vortex mix and allow to stand on ice for at least 10 minutes.
5. Pellet the precipitate by centrifuging in the microfuge for 10 minutes with the speed set at 6. Orient the tubes when placing them in the microfuge in order that the position of the pellet will be known.
6. Immediately after centrifugation, aspirate 55 μl of the supernatant and place in a scintillation vial. Add 5 ml of scintillation cocktail, shake well and count. […]

Another experiment addresses type IV procollagenase (Homo sapiens, UniProt P08253). To be noted: 10 mM EDTA; 1 mM pAPMA, 37° C.

Sequence of type IV procollagenase (P08253 30-660 limits assumed): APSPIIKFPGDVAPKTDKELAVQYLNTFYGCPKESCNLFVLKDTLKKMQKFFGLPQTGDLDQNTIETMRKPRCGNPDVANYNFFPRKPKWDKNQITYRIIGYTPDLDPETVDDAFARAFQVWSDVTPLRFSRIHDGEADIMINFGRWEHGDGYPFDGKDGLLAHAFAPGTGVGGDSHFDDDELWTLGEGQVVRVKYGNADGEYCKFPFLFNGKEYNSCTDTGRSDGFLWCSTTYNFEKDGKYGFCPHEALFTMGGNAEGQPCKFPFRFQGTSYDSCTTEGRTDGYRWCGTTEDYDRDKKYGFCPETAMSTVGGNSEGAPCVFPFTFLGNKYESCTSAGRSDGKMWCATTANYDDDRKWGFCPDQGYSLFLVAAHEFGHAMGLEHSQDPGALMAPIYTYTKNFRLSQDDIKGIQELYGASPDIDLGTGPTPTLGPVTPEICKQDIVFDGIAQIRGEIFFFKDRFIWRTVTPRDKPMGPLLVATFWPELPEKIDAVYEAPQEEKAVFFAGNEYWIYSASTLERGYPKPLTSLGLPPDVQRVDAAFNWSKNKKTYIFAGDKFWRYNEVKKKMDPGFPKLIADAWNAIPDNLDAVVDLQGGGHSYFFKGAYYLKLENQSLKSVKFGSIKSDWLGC
Description for type IV procollagenase: 20 μl aliquots of A2058 melanoma cell conditioned media were activated in the presence of 1.0 mM pAPMA for the indicated times (min). The reactions were stopped by the addition of EDTA to 10 mM and the samples were electrophoresed on a 9% acrylamide gel with or without gelatin. The gelatin containing gels were developed as zymograms after electrophoresis.
Stock solutions of 0.01M p-APMA in 0.05N NaOH were prepared fresh daily. Proenzyme samples were incubated with a final concentration 0.5 or 1.0 mM p-APMA for varying times (0-16 hours) at 37° C. Following incubation, the samples were analyzed directly by NaDodSO4 -PAGE on 9% acrylamide gels containing 0.1% gelatin (gelatin zymogram). Alternatively, the samples were run on 9% NaDodSO4 -PAGE and electroblotted onto Immobilon P membranes (Millipore).

With “TMRKPRCGNPDVAN [Peptide 74, TMRKPRCGNPDVAN]”, at type IV collagenase, the “inhibition of enzyme activity” value is on record as 80%. Take `O=C(O)CN(CCN(CC(=O)O)CC(=O)O)CC(=O)O` [EDTA]: the “conversion of 70 kDa band to 62 kDa form” value on type IV procollagenase was “completely inhibited”.
